In US8017633B2, “Roflumilast for the treatment of diabetes mellitus” (Nycomed GmbH, priority 2005, dated 2011):

How the values were obtained:
[1] = test system: C57BLKS db/db mice; experiment: Daily water intake of db/db mice during once-daily oral treatment; type: in vivo, mouse
Method: (§1) Female C57BLKS db/db mice obtained from M&B A/S (8680 Ry, Denmark) were used in the studies at 10 to 11 weeks of age. Mice were housed 10 per cage and allowed free access to water and standard laboratory diet for rodents (chow 3433, Provimi Kliba SA, 4303 Kaiseraugst, Switzerland).
(§2) Mice were treated with vehicle, Roflumilast or Roflumilast-N-Oxide, respectively once daily in the morning. Roflumilast or Roflumilast-N-Oxide was suspended in 4% methocel and applied via oral gavage using oral feeding & dosing needles (outer diameter: 1.5 mm, TSE GmbH, 61350 Bad Homburg, Germany). A volume of 10 ml/kg body weight was administered for each dose.
The daily intake of food (chow 3433) and water was measured per animal (total daily intake of food divided by the number of animals) before and during the treatment with Roflumilast or Roflumilast-N-Oxide.

[2] = test system: C57BLKS db/db mice; experiment: 10 days study: fasting blood glucose and oral glucose tolerance in db/db mice; type: in vivo, mouse; settings: for Blood glucose (15 min after glucose application) / Blood glucose (before glucose application): fasted 24 h; for Blood glucose (15 min after glucose application): 15 min after oral 1 g/kg glucose; for Blood glucose (before glucose application): 1 h after dose
Method: as §1
Mice were allowed to acclimate to the local animal facilities for 1 week and retro-orbital blood samples were obtained 3 to 7 days prior to the start of the study.
as §2
10 days studies: Mice were treated with vehicle, Roflumilast or Roflumilast-N-Oxide once daily in the morning. On day 9, mice were fasted for 24 hours by removing standard diet for laboratory animals 1 hour after drug application. On day 10, one hour after administration of vehicle, Roflumilast or Roflumilast-N-Oxide glucose tolerance was assessed by oral application of 1 g/kg/10 ml glucose. Blood was sampled before and 15 minutes after glucose application and levels of glucose (accu-chek, Roche Diagnostics GmbH, 68298 Mannheim, Germany) were measured.

[3] = Rof-N-Oxide 1 mg/kg oral once daily 10 days
[4] = Rof-N-Oxide 3 mg/kg oral once daily 10 days
[5] = Rof-N-Oxide 10 mg/kg oral once daily 10 days
[6] = Rof-N-Oxide 30 mg/kg oral once daily 10 days

## O=C(Nc1c(Cl)c[n+]([O-])cc1Cl)c1ccc(OC(F)F)c(OCC2CC2)c1 [Rof-N-Oxide, 3-cyclopropylmethoxy-4-difluoromethoxy-N-(3,5-dichloro-1-oxido-pyridin-4-yl)benzamide]
[1]; 1 mg/kg group, Day −4, before first application
  Daily water intake before the first application: 9.4 g per mouse
[1]; 1 mg/kg group, Day −5, before first application
  Daily water intake before the first application: 9.2 g per mouse
[1]; 1 mg/kg oral once daily, Day 1
  Daily water intake on the days of application: 7.6 g per mouse
[1]; 1 mg/kg oral once daily, Day 2
  Daily water intake on the days of application: 6.9 g per mouse
[1]; 1 mg/kg oral once daily, Day 4
  Daily water intake on the days of application: 7.1 g per mouse
[1]; 1 mg/kg oral once daily, Day 5
  Daily water intake on the days of application: 8.0 g per mouse
[1]; 1 mg/kg oral once daily, Day 6
  Daily water intake on the days of application: 7.7 g per mouse
[1]; 1 mg/kg oral once daily, Day 7
  Daily water intake on the days of application: 8.5 g per mouse
[1]; 1 mg/kg oral once daily, Day 8
  Daily water intake on the days of application: 7.2 g per mouse
[1]; 3 mg/kg group, Day −1, before first application
  Daily water intake before the first application: 9.1 g per mouse
[1]; 3 mg/kg group, Day −2, before first application
  Daily water intake before the first application: 7.6 g per mouse
[1]; 3 mg/kg group, Day −3, before first application
  Daily water intake before the first application: 7.6 g per mouse
[1]; 3 mg/kg group, Day −4, before first application
  Daily water intake before the first application: 4.3 g per mouse
[1]; 3 mg/kg group, Day −5, before first application
  Daily water intake before the first application: 9.8 g per mouse
[1]; 3 mg/kg oral once daily, Day 1
  Daily water intake on the days of application: 5.1 g per mouse
[1]; 3 mg/kg oral once daily, Day 2
  Daily water intake on the days of application: 5.9 g per mouse
[1]; 3 mg/kg oral once daily, Day 4
  Daily water intake on the days of application: 5.9 g per mouse
[1]; 3 mg/kg oral once daily, Day 5
  Daily water intake on the days of application: 5.7 g per mouse
[1]; 3 mg/kg oral once daily, Day 6
  Daily water intake on the days of application: 5.4 g per mouse
[1]; 3 mg/kg oral once daily, Day 7
  Daily water intake on the days of application: 5.4 g per mouse
[1]; 3 mg/kg oral once daily, Day 8
  Daily water intake on the days of application: 5.2 g per mouse
[1]; 10 mg/kg group, Day −1, before first application
  Daily water intake before the first application: 9.6 g per mouse
[1]; 10 mg/kg group, Day −2, before first application
  Daily water intake before the first application: 8.2 g per mouse
[1]; 10 mg/kg group, Day −3, before first application
  Daily water intake before the first application: 7.9 g per mouse
[1]; 10 mg/kg group, Day −4, before first application
  Daily water intake before the first application: 9.6 g per mouse
[1]; 10 mg/kg group, Day −5, before first application
  Daily water intake before the first application: 12.1 g per mouse
[1]; 10 mg/kg oral once daily, Day 1
  Daily water intake on the days of application: 2.9 g per mouse
[1]; 10 mg/kg oral once daily, Day 2
  Daily water intake on the days of application: 3.5 g per mouse
[1]; 10 mg/kg oral once daily, Day 4
  Daily water intake on the days of application: 3.2 g per mouse
[1]; 10 mg/kg oral once daily, Day 5
  Daily water intake on the days of application: 3.7 g per mouse
[1]; 10 mg/kg oral once daily, Day 6
  Daily water intake on the days of application: 3.3 g per mouse
[1]; 10 mg/kg oral once daily, Day 7
  Daily water intake on the days of application: 3.0 g per mouse
[1]; 10 mg/kg oral once daily, Day 8
  Daily water intake on the days of application: 4.1 g per mouse
[1]; 30 mg/kg group, Day −1, before first application
  Daily water intake before the first application: 10.1 g per mouse
[1]; 30 mg/kg group, Day −2, before first application
  Daily water intake before the first application: 9.4 g per mouse
[1]; 30 mg/kg group, Day −3, before first application
  Daily water intake before the first application: 10.0 g per mouse
[1]; 30 mg/kg group, Day −4, before first application
  Daily water intake before the first application: 12.4 g per mouse
[1]; 30 mg/kg group, Day −5, before first application
  Daily water intake before the first application: 10.1 g per mouse
[1]; 30 mg/kg oral once daily, Day 1
  Daily water intake on the days of application: 2.3 g per mouse
[1]; 30 mg/kg oral once daily, Day 2
  Daily water intake on the days of application: 2.4 g per mouse
[1]; 30 mg/kg oral once daily, Day 4
  Daily water intake on the days of application: 2.6 g per mouse
[1]; 30 mg/kg oral once daily, Day 5
  Daily water intake on the days of application: 3.0 g per mouse
[1]; 30 mg/kg oral once daily, Day 6
  Daily water intake on the days of application: 2.9 g per mouse
[1]; 30 mg/kg oral once daily, Day 7
  Daily water intake on the days of application: 3.3 g per mouse
[1]; 30 mg/kg oral once daily, Day 8
  Daily water intake on the days of application: 2.5 g per mouse
[1]; db/db mice, treatment once daily oral
  Effect on increased daily water intake (summary in words): reduced
[2]; [3]
  Blood glucose (15 min after glucose application): 595 mg/dL
  Blood glucose (before glucose application): 220 mg/dL
[2]; [4]
  Blood glucose (15 min after glucose application): 467 mg/dL
  Blood glucose (before glucose application): 174 mg/dL
[2]; [5]
  Blood glucose (15 min after glucose application): 423 mg/dL
  Blood glucose (before glucose application): 139 mg/dL
[2]; [6]
  Blood glucose (15 min after glucose application): 326 mg/dL
  Blood glucose (before glucose application): 146 mg/dL
[2]; db/db mice
  Effect on fasting blood glucose levels (summary in words): reduce
  Effect on postprandial blood glucose levels (summary in words): reduce
